According to US20100061928A1, “LABELLED ANALOGUES OF HALOBENZAMIDES AS RADIOPHARMACEUTICALS” (Institut National De La Sante et De La Recherche Medicale …, priority 2006, published 2010):
Counter-ions that a name gives are not always drawn.

Key:
[1] = Elimination of the molecules: cumulative urinary and faecal excretion 0-72 hours; type: in vivo, mouse; settings: for Faecal elimination 0-72 hours (Faeces) / Urinary and faecal elimination 0-72 hours (Total) / Urinary elimination 0-72 hours (Urine): cumulative excretion 0-72 hours; for Faecal elimination 0-72 hours (Faeces) / Urinary elimination 0-72 hours (Urine): mice in metabolic cages; for Urinary and faecal elimination 0-72 hours (Total): urine + faeces
tumour = assay: Dosimetry with regard to the tumour (MIRD programme, extrapolated to ^131I); settings: for Effective period: extrapolated to 131I labelling; for Biological period: from biodistribution data
[2] = tested on: grafted B16 F0 murine melanoma tumour; assay: Biodistribution of the ^125I-labelled molecules in the melanoma-bearing mouse (autoradiography of whole-body sections); settings: for Concentration of radioactivity, B 16 (tumour), Mean / Concentration of radioactivity, Ic (intestinal contents), Mean / Concentration of radioactivity, Sc (stomach contents), Mean / Concentration of radioactivity, blood (measured in the heart cavity), Mean / Concentration of radioactivity, brain, Mean / Concentration of radioactivity, kidney, Mean / Concentration of radioactivity, liver, Mean / Concentration of radioactivity, lungs, Mean / Concentration of radioactivity, muscle (skeletal muscle), Mean / Concentration of radioactivity, pancreas, Mean / Concentration of radioactivity, spleen, Mean / Concentration of radioactivity, uvea (pigmented tissues of the eye), Mean: ^125I-labelled compound; for Biodistribution, Mean, B 16 / Biodistribution, radioactivity concentration in B 16, Mean: B 16 tumour
Protocol: The distribution of the radioactivity of the various compounds in the body (tumour and other organs) is quantified using an Ambis 4000 image analyzer on sections of whole animals. […] All the in vivo experimentation is carried out within the context defined by French legislation relating to animal experimentation.
The B16 F0 melanoma cells are provided by the ATCC and cultured in monolayers in culture medium (MEM, Invitrogen) supplemented with 10% foetal calf serum and antibiotics. The cultures are maintained by subculturing after trypsinization. The cells of the first passages are frozen and stored in liquid nitrogen. For the transplanting, the cells in culture at confluence are detached by trypsinization and washed with phosphate buffer (PBS).
The distribution of the radioactivity present in the sections is analyzed using an AMBIS 4000 analyzer (Scanalytics, CSPI, San Diego, Calif.), which is a proportional counter with a multiwire chamber validated and calibrated beforehand for the monitoring of iodine in the mouse. The measurements require acquisition times of 1000 minutes. […] The value of radioactivity per unit of surface area (cpm/mm^2) is converted to concentration (kBq/g) and expressed as percentage of the injected dose/g of tissue (% ID/g).

[3] = 1 H after i.v., 125I-labelled, dose = 1.09 MBq
[4] = 3 H after i.v., 125I-labelled, dose = 1.09 MBq
[5] = 24 H after i.v., 125I-labelled, dose = 1.09 MBq
[6] = 72 H after i.v., 125I-labelled, dose = 1.09 MBq

CCN(CC)CCNC(=O)c1ccc(I)cc1 [BZA, N-(2-diethylaminoethyl)-4-iodobenzamide, reference compound]
Faecal elimination 0-72 hours (Faeces) [1]: 4.8%
Urinary and faecal elimination 0-72 hours (Total) [1]: 87.9%
Urinary elimination 0-72 hours (Urine) [1]: 83.1%
elimination route (in words) ([1]; urinary versus faecal, 0-72 hours): predominantly in the urine
Effective period (tumour): 17.8 h
Biological period (tumour): 19.6 hours

CCN(CC)CCNC(=O)c1ccc2cc(I)ccc2c1 [compound 3, N-(2-diethylaminoethyl)-6-iodo-2-naphthamide hydrochloride]
Faecal elimination 0-72 hours (Faeces) [1]: 26.7%
Urinary and faecal elimination 0-72 hours (Total) [1]: 70.6%
Urinary elimination 0-72 hours (Urine) [1]: 43.7%
Effective period (tumour): 21.4 h
Biological period (tumour): 24.0 hours
Concentration of radioactivity, B 16 (tumour), Mean ([2]; 1 H after i.v. administration): 12.99 % ID/g
Concentration of radioactivity, Ic (intestinal contents), Mean ([2]; 1 H after i.v. administration): 7.82 % ID/g
Concentration of radioactivity, Sc (stomach contents), Mean ([2]; 1 H after i.v. administration): 27.82 % ID/g
Concentration of radioactivity, blood (measured in the heart cavity), Mean ([2]; 1 H after i.v. administration): 2.97 % ID/g
Concentration of radioactivity, brain, Mean ([2]; 1 H after i.v. administration): 4.37 % ID/g
Concentration of radioactivity, kidney, Mean ([2]; 1 H after i.v. administration): 13.30 % ID/g
Concentration of radioactivity, liver, Mean ([2]; 1 H after i.v. administration): 9.46 % ID/g
Concentration of radioactivity, lungs, Mean ([2]; 1 H after i.v. administration): 11.82 % ID/g
Concentration of radioactivity, muscle (skeletal muscle), Mean ([2]; 1 H after i.v. administration): 1.92 % ID/g
Concentration of radioactivity, pancreas, Mean ([2]; 1 H after i.v. administration): 10.18 % ID/g
Concentration of radioactivity, spleen, Mean ([2]; 1 H after i.v. administration): 9.70 % ID/g
Concentration of radioactivity, uvea (pigmented tissues of the eye), Mean ([2]; 1 H after i.v. administration): 13.21 % ID/g
Concentration of radioactivity, B 16 (tumour), Mean ([2]; 3 H after i.v. administration): 11.38 % ID/g
Concentration of radioactivity, Ic (intestinal contents), Mean ([2]; 3 H after i.v. administration): 25.85 % ID/g
Concentration of radioactivity, Sc (stomach contents), Mean ([2]; 3 H after i.v. administration): 24.69 % ID/g
Concentration of radioactivity, blood (measured in the heart cavity), Mean ([2]; 3 H after i.v. administration): 1.77 % ID/g
Concentration of radioactivity, brain, Mean ([2]; 3 H after i.v. administration): 0.78 % ID/g
Concentration of radioactivity, kidney, Mean ([2]; 3 H after i.v. administration): 5.65 % ID/g
Concentration of radioactivity, liver, Mean ([2]; 3 H after i.v. administration): 4.75 % ID/g
Concentration of radioactivity, lungs, Mean ([2]; 3 H after i.v. administration): 4.43 % ID/g
Concentration of radioactivity, muscle (skeletal muscle), Mean ([2]; 3 H after i.v. administration): 0.83 % ID/g
Concentration of radioactivity, pancreas, Mean ([2]; 3 H after i.v. administration): 8.19 % ID/g
Concentration of radioactivity, spleen, Mean ([2]; 3 H after i.v. administration): 2.59 % ID/g
Concentration of radioactivity, uvea (pigmented tissues of the eye), Mean ([2]; 3 H after i.v. administration): 13.90 % ID/g
Concentration of radioactivity, B 16 (tumour), Mean ([2]; 6 H after i.v. administration): 8.95 % ID/g
Concentration of radioactivity, Ic (intestinal contents), Mean ([2]; 6 H after i.v. administration): 18.72 % ID/g
Concentration of radioactivity, Sc (stomach contents), Mean ([2]; 6 H after i.v. administration): 10.79 % ID/g
Concentration of radioactivity, blood (measured in the heart cavity), Mean ([2]; 6 H after i.v. administration): 1.74 % ID/g
Concentration of radioactivity, brain, Mean ([2]; 6 H after i.v. administration): 0.25 % ID/g
Concentration of radioactivity, kidney, Mean ([2]; 6 H after i.v. administration): 3.07 % ID/g
Concentration of radioactivity, liver, Mean ([2]; 6 H after i.v. administration): 2.73 % ID/g
Concentration of radioactivity, lungs, Mean ([2]; 6 H after i.v. administration): 2.12 % ID/g
Concentration of radioactivity, muscle (skeletal muscle), Mean ([2]; 6 H after i.v. administration): 0.38 % ID/g
Concentration of radioactivity, spleen, Mean ([2]; 6 H after i.v. administration): 8.05 % ID/g
Concentration of radioactivity, uvea (pigmented tissues of the eye), Mean ([2]; 6 H after i.v. administration): 12.76 % ID/g
Concentration of radioactivity, B 16 (tumour), Mean ([2]; 24 H after i.v. administration): 6.97 % ID/g
Concentration of radioactivity, Ic (intestinal contents), Mean ([2]; 24 H after i.v. administration): 3.03 % ID/g
Concentration of radioactivity, Sc (stomach contents), Mean ([2]; 24 H after i.v. administration): 3.10 % ID/g
Concentration of radioactivity, uvea (pigmented tissues of the eye), Mean ([2]; 24 H after i.v. administration): 12.28 % ID/g
Concentration of radioactivity, B 16 (tumour), Mean ([2]; 72 H after i.v. administration): 1.52 % ID/g
Concentration of radioactivity, uvea (pigmented tissues of the eye), Mean ([2]; 72 H after i.v. administration): 7.84 % ID/g

CCN(CC)CCNC(=O)c1cccc2cc3cc(I)ccc3nc12 [compound 111, N-(2-diethylaminoethyl)-7-iodoacridine-4-carboxamide dihydrochloride]
Faecal elimination 0-72 hours (Faeces) [1]: 23.2%
Urinary and faecal elimination 0-72 hours (Total) [1]: 31.7%
Urinary elimination 0-72 hours (Urine) [1]: 8.5%
Biodistribution, Mean, B 16 ([2]; 1 H): 4.78
Biodistribution, Mean, B 16 ([2]; 3 H): 3.98
Biodistribution, Mean, B 16 ([2]; 6 H): 4.57
Biodistribution, Mean, B 16 ([2]; 24 H): 2.77
Biodistribution, Mean, B 16 ([2]; 72 H): 1.67
Biodistribution, Mean, GB ([2]; 1 H): 43.71
Biodistribution, Mean, GB ([2]; 6 H): 12.79
Biodistribution, Mean, Ic ([2]; 1 H): 23.92
Biodistribution, Mean, Ic ([2]; 3 H): 30.20
Biodistribution, Mean, Ic ([2]; 6 H): 28.54
Biodistribution, Mean, Ic ([2]; 24 H): 1.83
Biodistribution, Mean, Ic ([2]; 72 H): 0.75
Biodistribution, Mean, Sc ([2]; 1 H): 10.16
Biodistribution, Mean, Sc ([2]; 3 H): 9.56
Biodistribution, Mean, Sc ([2]; 6 H): 6.06
Biodistribution, Mean, Sc ([2]; 24 H): 0.73
Biodistribution, Mean, blood ([2]; 1 H): 0.75
Biodistribution, Mean, blood ([2]; 3 H): 0.54
Biodistribution, Mean, blood ([2]; 6 H): 0.42
Biodistribution, Mean, brain ([2]; 1 H): 0.28
Biodistribution, Mean, brain ([2]; 3 H): 0.27
Biodistribution, Mean, brain ([2]; 6 H): 0.11
Biodistribution, Mean, kidney ([2]; 1 H): 3.07
Biodistribution, Mean, kidney ([2]; 3 H): 1.27
Biodistribution, Mean, kidney ([2]; 6 H): 0.77
Biodistribution, Mean, liver ([2]; 1 H): 5.38
Biodistribution, Mean, liver ([2]; 3 H): 3.62
Biodistribution, Mean, liver ([2]; 6 H): 2.16
Biodistribution, Mean, liver ([2]; 24 H): 0.48
Biodistribution, Mean, liver ([2]; 72 H): 0.42
Biodistribution, Mean, lungs ([2]; 1 H): 1.70
Biodistribution, Mean, lungs ([2]; 3 H): 0.88
Biodistribution, Mean, lungs ([2]; 6 H): 0.59
Biodistribution, Mean, muscle ([2]; muscle, 1 H): 0.30
Biodistribution, Mean, pancreas ([2]; 1 H): 1.38
Biodistribution, Mean, pancreas ([2]; 3 H): 0.70
Biodistribution, Mean, spleen ([2]; 1 H): 3.11
Biodistribution, Mean, spleen ([2]; 3 H): 1.29
Biodistribution, Mean, spleen ([2]; 6 H): 0.87
Biodistribution, Mean, thyroid ([2]; 1 H): 21.00
Biodistribution, Mean, thyroid ([2]; 24 H): 40.73
Biodistribution, Mean, thyroid ([2]; 72 H): 38.07
Biodistribution, Mean, uvea ([2]; 1 H): 3.83
Biodistribution, Mean, uvea ([2]; 3 H): 4.69
Biodistribution, Mean, uvea ([2]; 6 H): 3.51
Biodistribution, Mean, uvea ([2]; 24 H): 3.45
Biodistribution, Mean, uvea ([2]; 72 H): 1.96

CCCN(CCC)CCCCNC(=O)c1cnc2cc(I)ccc2n1 [compound 144, N-(4-dipropylaminobutyl)-6-iodoquinoxaline-2-carboxamide dihydrochloride]
Faecal elimination 0-72 hours (Faeces) [1]: 34.8%
Urinary and faecal elimination 0-72 hours (Total) [1]: 80.5%
Urinary elimination 0-72 hours (Urine) [1]: 45.7%
Biodistribution, radioactivity concentration in B 16, Mean [2, 3]: 14.69 % ID/g
Biodistribution, radioactivity concentration in B 16, Mean [2, 4]: 44.92 % ID/g
Biodistribution, radioactivity concentration in B 16, Mean [2, 5]: 37.46 % ID/g
Biodistribution, radioactivity concentration in B 16, Mean [2, 6]: 24.02 % ID/g
Biodistribution, radioactivity concentration in Ic, Mean [2, 3]: 27.28 % ID/g
Biodistribution, radioactivity concentration in Ic, Mean [2, 4]: 29.12 % ID/g
Biodistribution, radioactivity concentration in Sc, Mean [2, 3]: 24.11 % ID/g
Biodistribution, radioactivity concentration in Sc, Mean [2, 4]: 34.86 % ID/g
tumour concentration, times higher than with BZA ([2]; at 72 hours (FIG. 1B)): 31 times
Biodistribution, radioactivity concentration in blood, Mean [2, 3]: 1.85 % ID/g
Biodistribution, radioactivity concentration in blood, Mean [2, 4]: 1.61 % ID/g
Biodistribution, radioactivity concentration in brain, Mean [2, 3]: 0.75 % ID/g
Biodistribution, radioactivity concentration in brain, Mean [2, 4]: 0.46 % ID/g
tumour concentration, % of the injected dose per gram of tumour ([2]; from the first hour): 14.7 % ID/g
Biodistribution, radioactivity concentration in kidney, Mean [2, 3]: 24.42 % ID/g
Biodistribution, radioactivity concentration in kidney, Mean [2, 4]: 17.73 % ID/g
Biodistribution, radioactivity concentration in liver, Mean [2, 3]: 12.84 % ID/g
Biodistribution, radioactivity concentration in liver, Mean [2, 4]: 7.84 % ID/g
Biodistribution, radioactivity concentration in lungs, Mean [2, 3]: 5.81 % ID/g
Biodistribution, radioactivity concentration in lungs, Mean [2, 4]: 4.91 % ID/g
Biodistribution, radioactivity concentration in muscle, Mean ([2]; muscle, 3 H after i.v., 125I-labelled, dose = 1.09 MBq): 0.79 % ID/g
Biodistribution, radioactivity concentration in pancreas, Mean [2, 3]: 23.88 % ID/g
Biodistribution, radioactivity concentration in pancreas, Mean [2, 4]: 13.06 % ID/g
Biodistribution, radioactivity concentration in spleen, Mean [2, 3]: 18.70 % ID/g
Biodistribution, radioactivity concentration in spleen, Mean [2, 4]: 6.08 % ID/g
Biodistribution, radioactivity concentration in thyroid, Mean [2, 4]: 60.78 % ID/g
Biodistribution, radioactivity concentration in thyroid, Mean [2, 5]: 44.74 % ID/g
Biodistribution, radioactivity concentration in uvea, Mean [2, 3]: 28.75 % ID/g
Biodistribution, radioactivity concentration in uvea, Mean [2, 4]: 41.75 % ID/g
Biodistribution, radioactivity concentration in uvea, Mean [2, 5]: 32.62 % ID/g
Biodistribution, radioactivity concentration in uvea, Mean [2, 6]: 23.28 % ID/g
